Data from publication PMC7767381, “Exploring the Anti-Cancer Mechanism of Novel 3,4′-Substituted Diaryl Guanidinium Derivatives” (Pharmaceuticals, 2020).
Where “and” joins values, the source holds several entries; their conditions need not be identical. Identical values can stand only once.

System: HL-60 cells
Assay: Annexin V-FITC/PI flow cytometry apoptosis assay in HL-60
Format: cell-based, human
Details: 48 h; for induction of apoptosis: annexin V-FITC/PI; for viability at 5 µM: HL-60, 5 μM
Procedure: We have previously reported that compound 1 induces 68.9 ± 0.1% apoptosis in HL-60 cells at a 10 μM concentration after 48 h. Accordingly, in order to evaluate the apoptotic effect of the most relevant derivatives (2, 3, and 4), HL-60 cells were treated with these compounds (at 5 µM, 5 µM, and 4 µM concentration, respectively) for 48 h, stained with annexin V-FITC/PI and analysed using flow cytometry (Figure 5).
Apoptosis was analysed using annexin V fluorescein isothiocyanate (FITC) and propidium iodide (PI). HL-60 cells were seeded at a density of 2 × 10^5 cells/mL in 12 well plates. Cells were then treated with either vehicle (0.5% ethanol), 2 (5 µM), 3 (5 µM), or 4 (4 µM) for 48 h. Following treatment, HL60 cells were collected and washed with annexin V binding buffer (5 mM HEPES, 70 mM NaCl, 1.25 mM CaCl2 pH 7.4) and stained with annexin V-FITC (iQ Corporation, Groningen, The Netherlands) for 20 min. Following washing with annexin V binding buffer, cells were resuspended in PI (0.5 µg/mL) in binding buffer and analysed on BD FACS Canto II flow cytometer (BD Sciences) using FloJo software (Ashland, OR, USA).
Figure 5 Annexin V-FITC vs. PI flow cytometry analysis of HL-60 cancer cells treated with compounds 3 (5 μM), 2 (5 μM) and 4 (4 μM) for 48 h. These figures are representative of three independent experiments. The viable cells, early apoptotic, necrotic and late apoptotic cells are represented by the lower left, lower right, upper left and upper right quadrants, respectively. TEXT PRINTED IN THE PICTURE: 3: 2.45; 32.6; 27.1; 37.8 | 2: 0.56; 11.3; 78.1; 9.96 | 4: 1.09; 40.2; 12.4; 46.2 DOUBTS OF THE COPYIST ABOUT THIS PICTURE: All quadrant numbers are in very small print with no measure or unit; they are listed in the order upper left, upper right, lower left, lower right / 3, upper right quadrant: 32.6, partly covered by data points, 3/8 and 6/8 uncertain / 3, lower right quadrant: 37.8, partly covered by data points, 37.8 or 37.6 / 3, lower left quadrant: 27.1, small print / 2, lower left quadrant: 78.1 or 76.1 / 2, lower right quadrant: 9.96 or 9.95 or 9.98 / 4, upper right quadrant: 40.2, partly covered by data points / 4, lower right quadrant: 46.2 or 48.2, partly covered by data points / The Control and Vehicle plots also print quadrant numbers (Control: 0.16, 1.41, 97.7, 0.77; Vehicle: 0.088, 1.65, 97.3, 0.94); they are not listed because they are not test substances […]
Apoptosis was analysed using annexin V fluorescein isothiocyanate (FITC) and propidium iodide (PI). HL-60 cells were seeded at a density of 2x10^5 cells/mL in 12 well plates. Cells were then treated with either vehicle (0.5% ethanol), 2 (5 µM), 3 (5 µM) or 4 (4 µM) for 48 hours.
Following treatment, HL60 cells were collected and washed with annexin V binding buffer (5 mM HEPES, 70 mM NaCl, 1.25 mM CaCl2 pH 7.4) and stained with annexin V -FITC (iQ Corporation, Groningen, The Netherlands) for 20 minutes. Following washing with annexin V binding buffer, cells were resuspended in PI (0.5 µg/mL) in binding buffer and analysed on BD FACS Canto II flow cytometer (BD Sciences) using FloJo software (Ashlan d, Oregon, United […]
Figure S13. Compounds 3 and 4 promote strong apoptosis when inhibiting HL-60 cell viability.
For flow cytometry, HL60 cells were seeded at a density of 2x10^5 cells/mL in 12 well plates.
Cells were then treated with either vehicle (0.5% ethanol), 2 (5 µM), 3 (5 µM) or 4 (4 µM) for 48 hours. After 48 hours, cells were collected and stained with annexin V – FITC and propidium iodide. Samples were analysed by flow cytometry using the BD FACs Canto II cytometer.
Columns and bars represent the mean ± S.D. of 3 independent experiments. Statistical analysis was performed using one-way ANOVA with Dunnett’s multiple comparisons test comparing vehicle to drug treated samples. *p<0.05 and ***p<0.001.
(1 picture or pasted object on this page, not shown here)

[1] = Homo sapiens, representative plot, read-out: viable cells (lower left quadrant)

| SMILES | induction of apoptosis (HL-60, 5 µM) | viability at 5 µM [1] | induction of apoptosis (HL-60, 4 µM) | viability at 4 µM (Homo sapiens, HL-60, 4 μM, representative plot, read-out: viable cells (lower left quadrant)) |
| --- | --- | --- | --- | --- |
| Cl.Cl.N=C(N)Nc1ccc(Oc2cccc(NC(=N)Nc3ccc(Cl)c(C(F)(F)F)c3)c2)cn1 [Compound 2, 1-(4-Chloro-3-(trifluoromethyl)phenyl)-3-(3-((6-guanidinopyridin-3-yl)oxy)phenyl) guanidine dihydrochloride] | 30.7 ± 11.6% and ~30% | 78.1% |  |  |
| Cl.N=C(N)Nc1ccc(Oc2cccc(Nc3ccc(Cl)c(C(F)(F)F)c3)c2)cc1 [Compound 3, 1-(4-(3-((4-Chloro-3-(trifluoromethyl)phenyl)amino)phenoxy)phenyl)guanidine hydrochloride] | 82.5 ± 11.3% and 82% | 27.1% |  |  |
| Cl.N=C(N)Nc1ccc(Oc2cccc(Nc3ccc(Cl)c(C(F)(F)F)c3)c2)cn1 [Compound 4, 1-(5-(3-((4-Chloro-3-(trifluoromethyl)phenyl)amino)phenoxy)pyridin-2-yl)guanidine hydrochloride] |  |  | 92.7 ± 5.5% and 92% | 12.4% |
